From patent US8580919B2, “Polymer conjugates of GLP-1” (Nektar Therapeutics, priority 2005, dated 2013)
Ends that are not written are not given here.

Experiments:
diabetic db/db mice = experiment: In-vivo study of blood-glucose lowering effects, subcutaneous dose, diabetic db/db mice (Example 8); design: species or system mouse; conditions: for blood glucose-lowering effect: single SC dose, FIG. 13
Experimental: Male diabetic mice (BKS.Cg-+Lepr db/+Lepr db/01aHsd) were purchased from Harlan Laboratories, Ltd. (Jerusalem, Israel). The 8-9 week old animals (30-40 gm) were placed in mouse cages (two animals per cage), and allowed at least 48 hours of acclimatization before the start of the study.
The study was divided into two phases: a feasibility phase and an evaluation phase.
In carrying out the feasibility phase, several groups of mice were used wherein four mice were used in each group. Data on the baseline glucose levels were gathered for each mouse for 2-3 days prior to drug dosing. This was performed to identify any outliers in the group of animals. On the day of treatment (Day 0) each animal was weighed. A time 0 day blood sample (5 to 10 μL) was collected from the tail vein. The glucose level (mg/dL) was measured using a glucose analyzer. Each animal was then dosed subcutaneously (SC) below the skin on the back. […] The animals were then allowed to return into their cages. Blood samples of 5 to 10 μL (<0.5% of 2 mL blood volume for a 35 g mouse) were removed through a needle prick/capillary tube at the following time points: −3, −2, −1, 0, 0.04, 0.16, 0.33, 1.0, 1.16 days. Each collected blood sample was tested for its glucose level. At the end of the study, the animals were humanely euthanized by carbon-dioxide asphyxiation.
In carrying out the evaluation phase, eight mice were used in each group. Data on the baseline glucose levels were gathered for each mouse three days prior to drug dosing. On the day of treatment (Day 0) each animal was weighed. A time 0 day blood sample (5 to 10 μL) was collected from the tail vein. The glucose level (mg/dL) was measured using a glucose analyzer. Each animal was then dosed subcutaneously (SC) below the skin on the back. […] The animals were then allowed to return into their cages. Blood samples of 5 to 10 μL (<0.5% of 2 mL blood volume for a 35 g mouse) were removed through a needle prick/capillary tube at the following time points: −3, −2, −1, 0, 0.04, 0.16, 0.33, 0.5, 1, 2, 3, 6 days. Each collected blood sample was for its glucose level. […]

[1] = Lability of the conjugate on attempted further purification (Example 23); assay type: physicochemical; conditions: when attempting to further purify the conjugate
From the text: The conjugate rapidly hydrolyzed to native GLP-1 and a GLP-1 derivative resulting from an intramolecular ring closure reaction due to reaction at the carbamate carbonyl by the imidazolyl nitrogen of the N-terminal histidine of GLP-1. The modified GLP-1 thereby released is shown below. Further purification was not pursued.

Substance | blood glucose-lowering effect (diabetic db/db mice) | PD effect of 40 kilodalton PEG conjugate compared to 20 kilodalton PEG conjugate (diabetic db/db mice; SC 420 μg) | stability of the conjugate [1]
G2PEG2Fmoc20K-Lys-GLP-1: G2PEG2Fmoc20k-NHS covalently and releasably attached to a lysine position of GLP-1 (HAEGTFTSDVSSYLEGQAAKEFIAWLVKGRG; also: releasable G2PEG2Fmoc 20 kDa PEG on a lysine, position not given here; UniProt P01275 98-128, looked up) | confirmed | – | –
G2PEG2Fmoc40K-Lys-GLP-1: G2PEG2Fmoc40k-NHS covalently and releasably attached to a lysine position of GLP-1 (HAEGTFTSDVSSYLEGQAAKEFIAWLVKGRG; also: releasable G2PEG2Fmoc 40 kDa PEG on a lysine, position not given here; UniProt P01275 98-128, looked up) | confirmed | small but extended PD effect | –
N-terminal GLP-1 conjugate prepared by reaction with an mPEG-SBC reagent: counterpart N-terminal GLP-1 conjugate prepared by reaction with an mPEG-SBC reagent | – | – | extremely labile
